Laboratory results as given in US12364703B2, “Homogeneous ophthalmic composition” (priority 2015, dated 2025).
Structures can show the parent of a compound that is named as a salt.

Assay: LCMS and standard curve analysis of the concentration of each active ingredient in solution
Assay type: physicochemical
Details: three samples of solutions containing the three active ingredients; LCMS, standard curve
Procedure: Separate stock solutions of moxifloxacin HCI, dexamethasone, and sodium bromfenac were used as standards. Three different samples of solutions containing the three active ingredients, i.e., moxifloxacin HCI, dexamethasone, and sodium bromfenac were analyzed for the concentration of moxifloxacin in solution, the concentration of dexamethasone in solution, and the concentration of sodium bromfenac in solution.

Concentration in Solution	SMILES
40.5 µg/mL	Nc1c(CC(=O)O)cccc1C(=O)c1ccc(Br)cc1 [bromfenac sodium]
5458 µg/mL	COc1c(N2C[C@@H]3CCCN[C@@H]3C2)c(F)cc2c(=O)c(C(=O)O)cn(C3CC3)c12 [moxifloxacin HCI, moxifloxacin hydrochloride]
